The values that follow come from PMC10951066, “The self-reactive FVIII T cell repertoire in healthy individuals relies on a short set of epitopes and public clonotypes” (Frontiers in Immunology, 2024).

For experiment [1], the system named is CD4 T cells from healthy donors. In words: Large-scale CD4 T cell epitope mapping by IFN-γ ELISPOT (16 donors). Type of experiment: cell-based, human. Particulars: for Donor coverage ( %): of 16 donors; for responding donors: of 16 healthy donors, individual peptide 10 µg/ml; for response intensity ( %): percentage of 872 FVIII-specific T cell lines. An excerpt:
PBMCs were purified from the whole blood of anonymous healthy donors, who gave informed consent (Etablissement Français du Sang, Rungis, France), using Ficoll-Paque®. Monocyte-derived dendritic cells (DCs) were produced from cells isolated using Percoll gradient by 5 days of culture in AIM-V medium (Invitrogen, Villebon-sur-Yvette, France) supplemented with 1,000 U/ml recombinant human (rh) IL-4 and rhGM-CSF (both from R&D Systems, Lille, France). Mature DCs were produced by two supplementary days of culture in the presence of LPS (1 µg/ml) and R848 (10µg/ml). CD4 T cells were isolated from autologous PBMCs by positive selection using magnetic labeling with anti-CD4 mAbs conjugated to magnetic microbeads followed by magnetic cell sorting, as recommended by the manufacturer (Miltenyi Biotec, Bergisch Gladbach, Germany). Immature DCs were loaded overnight at 37 °C with either 0.2 µM of rFVIII, 0.2 µM of ovalbumin, or 0.25 µM of KLH in 96-well U-bottom plates, while mature DCs were used for FVIII peptides (10 ug/ml). CD4 T cell lines were generated in vitro in IMDM (Invitrogen) supplemented with 10% human serum, 0.24 mM glutamine, 0.55 mM asparagine, 1.5 mM arginine (all amino acids from Sigma-Aldrich), 50 U/mL penicillin/50 μg/mL of streptomycin (Invitrogen), 20 IU/mL human IL-2, and 17 IU/ml human IL-7 (premium-grade; Miltenyi Biotec) by three once-per-week rounds of stimulation of CD4 T cells (200,000 per well) with autologous DCs (20,000 per well). 10,000 lymphocytes were collected at day 19 from each T cell line (expanded T cells contained in one well) and their specificity was assessed by using IFN-g ELISPOT.
The T cell lines and APCs were plated at equal number for both stimulated and unstimulated control conditions. […] The spot number was determined by using the ELISPOT Reader System (Autoimmun Diagnostika, Ebinger, Germany). HLA restriction was assessed using monoclonal antibodies (10 μg/ml) specific to HLA-DP (B7/21), HLA-DQ (SPVL3), or HLA-DR (L243).
Based on the T cell epitope prediction software NetMHCpan4.0 ([23]), we selected 63 20-mer peptides that are predicted for their ability to bind promiscuously, with a percentile score below 10%, at least four HLA class II molecules from a selection of 15 preponderant HLA-DR alleles in our panel (as shown in ST1). […] A total of 16 healthy donors with unrelated HLA typing (ST2) were used as sources of T cells to identify FVIII-specific CD4 T cell epitopes. Specific T cell lines were generated by in vitro T cell culture using FVIII and KLH. The peptide specificity of the T cell lines raised against FVIII was assessed by two independent IFN-γ ELISPOT using peptide pools and individual peptides. […] Furthermore, four independent healthy donors were used as sources of T cells to characterize the HLA restriction and to assess the reactivity of T cell lines generated with the 18 peptides toward rFVIII. T cell lines were amplified in vitro for 28 days through stimulation with the pool of 18 peptides and then tested through IFN-γ ELISPOT.

The target of another experiment is HLA-DRB1*0401 (Homo sapiens, UniProt P01903+P01911, A100K/A169T/F76Y/I96L/K127E/L162R/M171V/N62H/P40V/Q125Y/R42H/S133A/S149N/S66Y/V115G/V209L/W38E). In words: Peptide-MHCII competition binding assay. Particulars: competition ELISA, pH 5.9, peptide 90.000nM – 0.9nM, HLA-DRB1 30 nM, biotinylated peptide 15nM, duplicate wells; ratios below 10 = good binding; reference peptide […]. Here is the method:
(§1) Quantitative peptide-MHCII competition binding assays were carried out to determine binding avidities of the 18 20-mer FVIII peptides to 6 HLA-DRB1. Data are presented as ratio between reference peptide IC50/FVIII-peptide IC50 tested. Briefly, non-biotinylated FVIII peptides have been diluted at a concentration of 20 mM in DMSO. 10-µl aliquots of serially diluted (90.000nM – 0.9nM in n-Octyl b-D-Glucopyranoside, 2.5 mg/ml in 1x phosphate buffer, pH 5.9) of non-biotinylated FVIII peptides, were added to duplicate wells of 96-well polypropylene plates. Serially diluted non-FVIII reference peptides known to bind to the specific HLA-DRB1 were added to separate wells as positive controls. Next, the biotinylated peptide at a concentration of 2mM was use to prepare 1000-fold pre-dilution to reach a final concentration of 15nM. The HLA-DRB1 proteins were diluted to 30 nM in n-Octyl β-D-Glucopyranoside, 2.5 mg/ml in 1x phosphate buffer, pH 5.9. […] SA-HRP (diluted 5000x in 1xPBS 0.1% Tween20) was added to each well. The plates were covered and incubated at room temperature for 60 min […] and washed. TMB (100 μl/well) was then added, and the plates were incubated at room temperature for 15-30 min. ELISA stopping solution (0.5M H2SO4) was added and then read on a FLUOstar OPTIMA fluorometer. Sigmoidal binding curves were simulated and IC50 values calculated for the FVIII peptides, based on their competition with the reference peptides for each HLA-DRB1. Data were reported as the ratio between the values of the tested peptide and of the reference peptide. Ratios below 10 correspond to good biding affinity.

Another experiment deals with HLA-DRB1*0301 (Homo sapiens, UniProt P01903+P01911, A100K/A102G/A103R/A169T/F55Y/I96L/K41T/L162R/M171V/P40S/Q125H/Q178H/Q39Y/R42S/S66N/T106N/T262R/W38E/Y61H). In words: Peptide-MHCII competition binding assay. Particulars: competition ELISA, pH 5.9, peptide 90.000nM – 0.9nM, HLA-DRB1 30 nM, biotinylated peptide 15nM, duplicate wells; ratios below 10 = good binding; reference peptide SFLLTDLINRRTPRVDGQ
The procedure:
as §1
For orientation: An ELISA detects its analyte on a solid surface through an enzyme-linked reagent.

The target in the next experiment is HLA-DRB1*0101 (Homo sapiens, UniProt P01903+P01911, A100R/D57E/F55L/F60I/F76Y/I96L/L162R/M171V/P40L/Q125E/R42F/V115G/Y59C). Briefly: Peptide-MHCII competition binding assay. Particulars: competition ELISA, pH 5.9, peptide 90.000nM – 0.9nM, HLA-DRB1 30 nM, biotinylated peptide 15nM, duplicate wells; ratios below 10 = good binding; reference peptide […]. The procedure: as §1

A further experiment addresses HLA-DRB1*1101 (Homo sapiens, UniProt P01903+P01911, A100R/A169T/A87E/I96F/K41T/L162R/M171V/P40S/Q125H/Q178H/Q39Y/Q99D/R42S/S66Y/T262R/V115G/W38E). Briefly: Peptide-MHCII competition binding assay. Particulars: competition ELISA, pH 5.9, peptide 90.000nM – 0.9nM, HLA-DRB1 30 nM, biotinylated peptide 15nM, duplicate wells; ratios below 10 = good binding; reference peptide […]. Here is the method:
as §1

A further experiment has as its target HLA-DRB1*0701 (Homo sapiens, UniProt P01903+P01911, A100R/A102G/A103Q/D57E/D86V/E43K/F76Y/K127E/L162R/M171V/P40G/Q125H/Q99D/R33Q/R42Y/R54Q/S133A/S66F/T210M/V115G/Y107V/Y59L/Y89S). Briefly: Peptide-MHCII competition binding assay. Particulars: competition ELISA, pH 5.9, peptide 90.000nM – 0.9nM, HLA-DRB1 30 nM, biotinylated peptide 15nM, duplicate wells; ratios below 10 = good binding; reference peptide PVDLHAFLSQAVFS
The procedure:
as §1

Another experiment concerns the target HLA-DRB1*1501 (Homo sapiens, UniProt P01903+P01911). Briefly: Peptide-MHCII competition binding assay. Particulars: competition ELISA, pH 5.9, peptide 90.000nM – 0.9nM, HLA-DRB1 30 nM, biotinylated peptide 15nM, duplicate wells; ratios below 10 = good binding; reference peptide ENPVVHFFKNIVTPR
Here is the method: as §1

Take “GHTFLVRNHRQASLEISPIT [P292-311, 20-mer FVIII peptide, A1 domain]”: the “nb positive T cell lines” value in experiment [1] (across all 16 donors) stood at 26. Besides, the “cumulative donor coverage (%)” value in experiment [1] (cumulative over peptides ranked by donor coverage) was 81%. Besides, in experiment [1], the “Donor coverage ( %)” value is listed as 75%, the responding donors is recorded as 12 and the “response intensity ( %)” value is on record as 2,98%. Also, the “Ratio IC50 DRB1*0401” value on HLA-DRB1*0401 worked out at 22.5. Also, the “Ratio IC50 DRB1*0301” value on HLA-DRB1*0301 is recorded as 72. Also, the “Ratio IC50 DRB1*0101” value on HLA-DRB1*0101 was 34. Further, the “Ratio IC50 DRB1*1101” value at HLA-DRB1*1101 stood at 0.05. For the same sequence, the “Ratio IC50 DRB1*0701” value on HLA-DRB1*0701 is recorded as 1.

As for “TQGVKSLLTSMYVKEFLISS [P2264-2283, 20-mer FVIII peptide, C2 domain]”, in experiment [1], the “Donor coverage ( %)” value came out at 50%, the responding donors worked out at 8 and the “response intensity ( %)” value is 1,72%. Besides, the “Ratio IC50 DRB1*0401” value at HLA-DRB1*0401 is listed as 5.5. The “Ratio IC50 DRB1*0301” value at HLA-DRB1*0301 was 17. At HLA-DRB1*1501, the “Ratio IC50 DRB1*1501” value was 480. Besides, on HLA-DRB1*0101, the “Ratio IC50 DRB1*0101” value turned out to be 6242. For the same sequence, the “Ratio IC50 DRB1*1101” value on HLA-DRB1*1101 was found to be 0.05. For the same sequence, the “Ratio IC50 DRB1*0701” value on HLA-DRB1*0701 amounted to 0.05.
